Experimental findings from US10179125B2, “Substituted pyridines as bromodomain inhibitors” (Zenith Epigenetics Ltd., priority 2014, dated 2019) are described below.

Test [1] deals with T1, Brd4 bromodomain 1 (BRD4(1)) (Homo sapiens, UniProt O60885).
T1 construct: made in house; host or cells: E. coli BL21(DE3)
The experiment in a line: Inhibition of tetra-acetylated histone H4 binding to BET bromodomain (HTRF/FRET). The note with it: His-tagged bromodomain 200 nM, biotinylated tetra-acetylated histone H4 peptide, 2 h room temperature. As for the experimental part: Proteins were cloned and overexpressed with a N-terminal 6×His tag, then purified by nickel affinity followed by size exclusion chromatography. Briefly, E. coli BL21(DE3) cells were transformed with a recombinant expression vector encoding N-terminally Nickel affinity tagged bromodomains from Brd2, Brd3, Brd4. Cell cultures were incubated at 37° C. with shaking to the appropriate density and induced overnight with IPTG. The supernatant of lysed cells was loaded onto Ni-IDA column for purification, Eluted protein was pooled, concentrated and further purified by size exclusion chromatography. Fractions representing monomeric protein were pooled, concentrated, aliquoted, and frozen at −80° C. for use in subsequent experiments.
Binding of tetra-acetylated histone H4 and BET bromodomains was confirmed by a Homogenous Time Resolved Fluorescence Resonance Energy Transfer (HTRF®) method, N-terminally His-tagged bromodomains (200 nM) and biotinylated tetra-acetylated histone H4 peptide (25-50 nM, Millipore) were incubated in the presence of Europium Cryptate-labeled streptavidin (Cisbio Cat, #610SAKLB) and XL665-labeled monoclonal anti-His antibody (Cisbio Cat.1461HISXLB) in a white 96 well microtiter plate (Greiner). For inhibition assays, serially diluted test compound was added to these reactions in a 0.2% final concentration of DMSO. Duplicate wells were used for each concentration tested. Final buffer concentrations were 30 mM HEPES pH 7.4, 30 mM NaCl, 0.3 mM CHAPS, 20 mM phosphate pH 7.0, 320 mM KF, 0.08% BSA. After a 2 h incubation at room temperature, fluorescence was measured at 665 and 620 nm with a SynergyH4 plate reader (Biotek). The binding inhibitory activity was shown by a decrease in […] relative to 620 nm fluorescence. IC50 values were determined from a dose response curve.

The test system of test [2] is hIL-6. As to the kind of experiment: Inhibition of hIL-6 mRNA transcription in LPS-stimulated U937 cells. It counts as cell-based, Human. Particulars: Homo sapiens, U-937, PMA-differentiated U937 cells, 1 h pretreatment, LPS 3 h, read-out: IL-6 activity. As for the experimental part:
Human leukemic monocyte lymphoma U937 cells (CRL-1593.2) were plated at a density of 3.2×10^4 cells per well in a 96-well plate in 100 μL RPMI-1640 containing 10% FBS and penicillin/streptomycin, and differentiated into macrophages for 3 days in 60 ng/mL PMA ([…]) at 37° C. in 5% CO2 prior to the addition of compound. The cells were pretreated for 1 h with increasing concentrations of test compound in 0.1% DMSO prior to stimulation with 1 ug/mL lipopolysaccharide from Escherichia coli. Triplicate wells were used for each concentration. The cells were incubated at 37° C., 5% CO2 for 3 h before the cells were harvested. At time of harvest, media was removed and cells were rinsed in 200 μL PBS. Cells were harvested using the mRNA Catcher PLUS kit according to manufacturer's instructions. The eluted mRNA was then used in a one-step quantitative real-time PCR reaction using components of the RNA UltraSense™ One-Step Kit (Life Technologies) together with Applied Biosystems TaqMan® primer-probes for hIL-6 and Cyclophilin. Real-time PCR plates were run on a ViiA™7 real time PCR machine (Applied Biosystems), data was analyzed, normalizing the Ct values for hIL-6 to an internal control, prior to determining the fold expression of each sample, relative to the control.

The test system of test [3] is cMYC. The experiment in a line: Inhibition of cMYC expression in MV4-11 cells (real-time PCR). It counts as cell-based, Human. Particulars: 3 h, cMYC mRNA; for IC50: Homo sapiens, read-out: c-myc activity. On the procedure:
MV4-11 cells (CRL-9591) were plated at a density of 2.5×10^4 cells per well in 96 well U-bottom plates and treated with increasing concentrations of test compound or DMSO (0.1%) in IMDM media containing 10% FBS and penicillin/streptomycin, and incubated for 3 h at 37° C. Triplicate wells were used for each concentration. Cells were pelleted by centrifugation and harvested using the mRNA Catcher PLUS kit according to manufacturer's instructions. The eluted mRNA isolated was then used in a one-step quantitative real-time PCR reaction, using components of the RNA UltraSense™ One-Step Kit (Life Technologies) together with Applied Biosystems TaqMan® primer-probes for cMYC and Cyclophilin, Real-time PCR plates were run on a ViiA™7 real time PCR machine (Applied Biosystems), data was analyzed, normalizing the Ct values for cMYC to an internal control, prior to determining the fold expression of each sample, relative to the control.
For orientation: Real-time PCR tracks product formation cycle by cycle.

The subject of test [4] is Human AML MV-4-11 cells. As to the kind of experiment: Inhibition of cell proliferation in MV4-11 cells (CellTiter Aqueous One). It counts as cell-based. Particulars: 72 h; for IC50: Homo sapiens. As for the experimental part: MV4-11 cells (CRL-9591) were plated at a density of 5×10^4 cells per well in 96 well flat bottom plates and treated with increasing concentrations of test compound or DMSO (0.1%) in IMDM media containing 10% FBS and penicillin/streptomycin. Triplicate wells were used for each concentration and a well containing only media was used as a control. Plates were incubated at 37° C., 5% CO2 for 72 h before adding 20 μL of the CellTiter Aqueous One Solution (Promega) to each well and incubated at 37° C., 5% CO2 for an additional 3-4 h. The absorbance was read at 490 nm in a spectrophotometer and the percentage of cell titer relative to DMSO-treated cells was calculated after correcting for background by subtracting the blank well's signal. IC50 values were calculated using the GraphPad Prism software.

In the case of `CNc1ncc(-c2c(C)noc2C)cc1Nc1cc(C#N)ccc1C` [Example 64, 3-((5-(3,5-dimethylisoxazol-4-yl)-2-(methylamino)pyridin-3-yl)amino)-4-methylbenzonitrile], the IC50 in test [1] fell in the range of 0.3 to 3 µM; in test [2], 0.3 to 3 µM; in test [3] it was 0.3 to 3 µM; in test [4], 3 to 30 µM.

For `COc1cccc(Nc2cc(-c3c(C)noc3C)cnc2OC)c1` [Example 13, 5-(3,5-dimethylisoxazol-4-yl)-2-methoxy-N-(3-methoxyphenyl)pyridin-3-amine], the IC50 is no more than 0.3 µM in test [1], 0.3 to 3 µM in test [2] and 0.3 to 3 µM in test [4].

`CNc1ncc(-c2c(C)noc2C)cc1NCc1nccs1` [Example 56, 5-(3,5-dimethylisoxazol-4-yl)-N2-methyl-N3-(thiazol-2-ylmethyl)pyridine-2,3-diamine]: the IC50 in test [1] is no more than 0.3 µM; in test [2], 0.3 to 3 µM; in test [3], 0.3 to 3 µM; in test [4], 0.3 to 3 µM.

Consider `COc1ncc(-c2c(C)noc2C)cc1NCc1ncccc1Cl` [Example 49, N-((3-chloropyridin-2-yl)methyl)-5-(3,5-dimethylisoxazol-4-yl)-2-methoxypyridin-3-amine], for which the IC50 in test [1] was no more than 0.3 µM. Moreover, the “Cell Proliferation activity” value in test [4] is listed as “Not Active”.

With `Cc1noc(C)c1-c1cnc(Oc2ccccc2)c(NCc2ccccn2)c1` [Example 51, 5-(3,5-dimethylisoxazol-4-yl)-2-phenoxy-N-(pyridin-2-ylmethyl)pyridin-3-amine], the IC50 in test [1] was no more than 0.3 µM; in test [2], 0.3 to 3 µM; in test [3], 0.3 to 3 µM; in test [4] it was 3 to 30 µM.

With `COc1ncc(-c2c(C)noc2C)cc1Nc1ccc(C#N)cc1` [Example 35, 4-((5-(3,5-dimethylisoxazol-4-yl)-2-methoxypyridin-3-yl)amino)benzonitrile], the IC50 in test [1] was no more than 0.3 µM; in test [2], 0.3 to 3 µM; in test [3], 3 to 30 µM; in test [4] it was 3 to 30 µM.

Take `COc1ncc(-c2c(C)noc2C)cc1OCc1ccc(F)cc1` [Example 32, 4-(5-((4-fluorobenzyl)oxy)-6-methoxypyridin-3-yl)-3,5-dimethylisoxazole]: the IC50 in test [1] is no more than 0.3 µM; in test [2], 0.3 to 3 µM; in test [3], 3 to 30 µM; in test [4], 3 to 30 µM.

As to `CCOc1ncc(-c2c(C)noc2C)cc1NCc1ccccc1` [Example 39, N-benzyl-5-(3,5-dimethylisoxazol-4-yl)-2-ethoxypyridin-3-amine], the IC50 in test [1] was no more than 0.3 µM; in test [2], 0.3 to 3 µM; in test [3], 0.3 to 3 µM; in test [4], 0.3 to 3 µM.

On to `COc1ncc(-c2c(C)noc2C)cc1NCc1nc2ccccc2[nH]1` [Example 53, N-((1H-benzo[d]imidazol-2-yl)methyl)-5-(3,5-dimethylisoxazol-4-yl)-2-methoxypyridin-3-amine], for which the IC50 in test [1] was 0.3 to 3 µM; in test [2] it was 3 to 30 µM. Further, the c-myc activity entry in test [3] is “Not Active”. The “Cell Proliferation activity” value in test [4] is recorded as “Not Active”.

For `COc1ncc(-c2c(C)noc2C)cc1OCc1ccccn1` [Example 40, 4-(6-methoxy-5-(pyridin-2-ylmethoxy)pyridin-3-yl)-3,5-dimethylisoxazole], the IC50 in test [1] is no more than 0.3 µM; in test [2], 0.3 to 3 µM; in test [3] it was 0.3 to 3 µM; in test [4], 3 to 30 µM.

Regarding `COc1ncc(-c2c(C)noc2C)cc1NC(C)c1ccc(F)cc1` (centres unmarked) [Example 12, 5-(3,5-dimethylisoxazol-4-yl)-N-(1-(4-fluorophenyl)ethyl)-2-methoxypyridin-3-amine], the IC50 is no more than 0.3 µM in test [1], 0.3 to 3 µM in test [2], 0.3 to 3 µM in test [3] and 0.3 to 3 µM in test [4].

Regarding `COc1ncc(-c2c(C)noc2C)cc1OC(C)c1ccccc1` (centres unmarked) [Example 31, 4-(6-methoxy-5-(1-phenylethoxy)pyridin-3-yl)-3,5-dimethylisoxazole], the IC50 in test [1] was no more than 0.3 µM; in test [2], 0.3 to 3 µM; in test [3], 3 to 30 µM; in test [4], 0.3 to 3 µM.

For the compound `COc1ncc(-c2c(C)noc2C)cc1-c1c(C)noc1C` [Example 34, 4,4′-(2-methoxypyridine-3,5-diyl)bis(3,5-dimethylisoxazole)], the IC50 in test [1] is no more than 0.3 µM; in test [2] it was 3 to 30 µM; in test [3], 3 to 30 µM.

`COc1ncc(-c2c(C)noc2C)cc1NCc1ccc(Br)cc1` [Example 23, N-(4-bromobenzyl)-5-(3,5-dimethylisoxazol-4-yl)-2-methoxypyridin-3-amine]: the IC50 in test [1] lay within 0.3 to 3 µM; in test [3] it was 3 to 30 µM; in test [4] it was 3 to 30 µM.

With `COc1ncc(-c2c(C)noc2C)cc1NCc1ccc(C(F)(F)F)cc1` [Example 16, 5-(3,5-dimethylisoxazol-4-yl)-2-methoxy-N-(4-(trifluoromethyl)benzyl)pyridin-3-amine], in test [1], the IC50 fell in the range of 0.3 to 3 µM.

`CNc1ncc(-c2c(C)noc2C)cc1Nc1cccnc1C` [Example 69, 5-(3,5-Dimethylisoxazol-4-yl)-N2-methyl-N3-(2-methylpyridin-3-yl)pyridine-2,3-diamine]: in test [1], the IC50 was in the range of 0.3 to 3 µM.

For `COc1ncc(-c2c(C)noc2C)cc1NC(C)c1ccc(Cl)cc1` (centres unmarked) [Example 22, N-(1-(4-chlorophenyl)ethyl)-5-(3,5-dimethylisoxazol-4-yl)-2-methoxypyridin-3-amine], the IC50 fell in the range of 0.3 to 3 µM in test [1], 3 to 30 µM in test [3] and 3 to 30 µM in test [4].

With `COc1ncc(-c2c(C)noc2C)cc1NCc1ncccn1` [Example 48, 5-(3,5-dimethylisoxazol-4-yl)-2-methoxy-N-(pyrimidin-2-ylmethyl)pyridin-3-amine], the IC50 in test [1] was no more than 0.3 µM; in test [2], 0.3 to 3 µM; in test [4], 3 to 30 µM.

For `COc1ncc(-c2c(C)noc2C)cc1Nc1cccc(C)c1` [Example 7, 5-(3,5-dimethylisoxazol-4-yl)-2-methoxy-N-(m-tolyl)pyridin-3-amine], the IC50 in test [1] is no more than 0.3 µM; in test [2], 0.3 to 3 µM; in test [4] it was 3 to 30 µM.

Turning to `Cc1noc(C)c1-c1cnc(OCc2ccccc2)c(NCc2ccccc2)c1` [Example 25, N-benzyl-2-(benzyloxy)-5-(3,5-dimethylisoxazol-4-yl)pyridin-3-amine], the IC50 in test [1] fell in the range of 0.3 to 3 µM; in test [4], 3 to 30 µM.

As for `COc1ncc(-c2c(C)noc2C)cc1Oc1cccnc1` [Example 15, 4-(6-methoxy-5-(pyridin-3-yloxy)pyridin-3-yl)-3,5-dimethylisoxazole], the IC50 in test [1] was in the range of 3 to 30 µM.
